# Results: patent publication US7928140B2, “Benzothiazole PI3 kinase modulators for cancer treatment” (Amgen Inc., priority 2007, dated 2011)
# pIC50: −log10 of the molar value. Read-outs that look alike come from different tables or passages of the source.
# Experiments:
# [1] = target: T1, PI3K α (Homo sapiens, UniProt P42336); experiment: In vitro PI3 kinase enzyme assay (alpha), ATP loss, bioluminescence; assay type: biochemical; details: read-out: PI3Kα ATP loss IC50;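 also: purified p110α/p85 heterodimer acting on PtdIns(4,5)P2 at room temperature, remaining ATP read by luminescence, inhibition scaled between compound-free wells with and without enzyme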
# T1 construct: Full length p110 subunits of PI3K α, β and δ, N-terminally labeled with polyHis tag; polyHis (N); made in house; host or cells: Sf9 insect cells (baculovirus)
# [2] = target: T2, PI3K β (Homo sapiens, UniProt P42338); experiment: In vitro PI3 kinase enzyme assay (beta), ATP loss, bioluminescence; assay type: biochemical; details: read-out: PI3Kβ ATP loss IC50;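 also: purified p110β/p85 heterodimer with PtdIns(4,5)P2 as acceptor, incubated at room temperature, leftover ATP read by luminescence, inhibition scaled to compound-free wells with and without enzyme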
# T2 construct: Full length p110 subunits of PI3K α, β and δ, N-terminally labeled with polyHis tag; polyHis (N); made in house; host or cells: Sf9 insect cells (baculovirus)
# [3] = tested on: phosphorylation of Serine 473 in Akt, HCT 116 human colon carcinoma cells; experiment: Cell-based phospho-AKT Ser473 assay (MSD sandwich immunoassay, IGF-1 stimulated)
# Procedure: This assay determines the ability of test compounds to inhibit the phosphorylation of […] in Akt using a MSD based sandwich immunoassay (Meso Scale Detection, catalogue # N411CAB-1). […] Prior to the assay cells were detached from the culture flask with trypsin, and re-suspended in complete media to give a final concentration of 1.6×10^5 cells per ml. Aliquots (100 μl) of the HCT116 cell suspension were seeded into each well of a 96 well tissue culture plate (Corning Incorporated COSTAR, catalogue#3595) to give a final density of 16,000 cells per well. Cells were then incubated overnight at 37° C. The following day the cells were treated with serially diluted test compounds and incubated for 2 hours at 37° C. […] As a maximum response control, wells contained 0.5% DMSO in place of test compound. The plates were mixed at 700 rpm for 2 min to ensure even distribution of the test compound and incubated for 2 hours at 37° C. Cells were then stimulated with insulin-like growth factor 1 (Sigma, product #13769) at final concentration of 100 ng/ml for 15 minutes at 37° C. The media was then removed and the cells treated with 80 μl cell-lysis buffer (MSD) containing a cocktail of protease and phosphatase inhibitors for one hour at 4° C. […] The detection antibody was removed and plates were then washed four times with 200 μl per well of Tris wash buffer. An aliquot of 150 μl of diluted MSD read buffer was then applied to each well, and the electrochemiluminescent signal was measured using a MSD SECTORTM plate reader. This instrument measures the intensity of emitted light to determine a quantitative measure of phosphorylated Akt in each well. The dose-response data obtained with each compound were analyzed and the IC50 inhibition of Akt phosphorylation at Ser473 calculated.
# [4] = HCT 116 cells, read-out: HCT 116 pAKT IC50
# [5] = Homo sapiens, HCT-116, HCT 116 cells, read-out: HCT 116 pAKT IC50
# T1 sequence (P42336 whole entry, species assumed): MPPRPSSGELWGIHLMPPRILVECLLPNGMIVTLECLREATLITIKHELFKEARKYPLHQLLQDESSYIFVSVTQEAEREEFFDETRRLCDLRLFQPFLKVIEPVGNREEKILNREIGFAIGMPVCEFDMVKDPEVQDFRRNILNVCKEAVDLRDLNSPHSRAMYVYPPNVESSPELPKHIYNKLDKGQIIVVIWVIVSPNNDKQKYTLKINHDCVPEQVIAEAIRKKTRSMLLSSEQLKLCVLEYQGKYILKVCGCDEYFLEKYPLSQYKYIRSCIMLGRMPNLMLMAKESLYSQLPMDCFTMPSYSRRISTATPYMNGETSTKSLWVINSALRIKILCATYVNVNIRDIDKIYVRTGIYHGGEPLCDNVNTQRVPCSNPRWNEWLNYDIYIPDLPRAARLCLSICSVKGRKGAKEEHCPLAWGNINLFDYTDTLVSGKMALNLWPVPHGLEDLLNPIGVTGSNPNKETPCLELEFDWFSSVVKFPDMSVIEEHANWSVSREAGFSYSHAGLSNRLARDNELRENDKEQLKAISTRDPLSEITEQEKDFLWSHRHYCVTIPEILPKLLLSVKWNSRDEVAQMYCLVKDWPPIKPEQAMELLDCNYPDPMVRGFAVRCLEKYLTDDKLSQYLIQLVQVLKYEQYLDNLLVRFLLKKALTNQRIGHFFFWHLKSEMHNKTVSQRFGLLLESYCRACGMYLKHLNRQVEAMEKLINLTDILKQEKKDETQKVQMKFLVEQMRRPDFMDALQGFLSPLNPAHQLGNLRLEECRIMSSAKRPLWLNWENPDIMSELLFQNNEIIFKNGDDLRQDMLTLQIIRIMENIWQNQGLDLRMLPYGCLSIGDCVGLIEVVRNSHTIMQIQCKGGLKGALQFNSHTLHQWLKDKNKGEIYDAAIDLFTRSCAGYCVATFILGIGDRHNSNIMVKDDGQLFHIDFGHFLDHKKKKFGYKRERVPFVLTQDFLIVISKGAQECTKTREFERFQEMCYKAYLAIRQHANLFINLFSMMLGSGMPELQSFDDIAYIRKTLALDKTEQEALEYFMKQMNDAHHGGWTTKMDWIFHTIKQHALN
# T1 sequence (P27986 whole entry partner, species assumed): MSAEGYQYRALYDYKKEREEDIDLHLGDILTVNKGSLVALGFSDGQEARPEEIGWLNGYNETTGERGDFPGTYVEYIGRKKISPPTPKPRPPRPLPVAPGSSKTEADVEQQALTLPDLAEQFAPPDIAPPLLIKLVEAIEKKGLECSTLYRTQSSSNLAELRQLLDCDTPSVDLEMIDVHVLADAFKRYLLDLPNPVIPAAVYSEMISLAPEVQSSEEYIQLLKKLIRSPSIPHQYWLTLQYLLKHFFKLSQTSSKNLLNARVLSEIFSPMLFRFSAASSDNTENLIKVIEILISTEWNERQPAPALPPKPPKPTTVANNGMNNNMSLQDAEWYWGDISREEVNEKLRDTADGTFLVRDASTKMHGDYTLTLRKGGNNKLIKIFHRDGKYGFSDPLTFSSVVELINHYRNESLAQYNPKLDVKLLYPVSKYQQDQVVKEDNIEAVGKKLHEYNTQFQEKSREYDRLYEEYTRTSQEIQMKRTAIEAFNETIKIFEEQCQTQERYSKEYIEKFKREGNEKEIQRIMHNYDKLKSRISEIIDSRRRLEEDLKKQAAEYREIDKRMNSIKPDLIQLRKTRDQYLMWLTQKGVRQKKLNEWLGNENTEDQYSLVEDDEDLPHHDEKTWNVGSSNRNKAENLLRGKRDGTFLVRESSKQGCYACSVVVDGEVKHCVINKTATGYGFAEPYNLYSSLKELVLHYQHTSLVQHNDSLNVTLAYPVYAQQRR
# T2 sequence (P42338 whole entry): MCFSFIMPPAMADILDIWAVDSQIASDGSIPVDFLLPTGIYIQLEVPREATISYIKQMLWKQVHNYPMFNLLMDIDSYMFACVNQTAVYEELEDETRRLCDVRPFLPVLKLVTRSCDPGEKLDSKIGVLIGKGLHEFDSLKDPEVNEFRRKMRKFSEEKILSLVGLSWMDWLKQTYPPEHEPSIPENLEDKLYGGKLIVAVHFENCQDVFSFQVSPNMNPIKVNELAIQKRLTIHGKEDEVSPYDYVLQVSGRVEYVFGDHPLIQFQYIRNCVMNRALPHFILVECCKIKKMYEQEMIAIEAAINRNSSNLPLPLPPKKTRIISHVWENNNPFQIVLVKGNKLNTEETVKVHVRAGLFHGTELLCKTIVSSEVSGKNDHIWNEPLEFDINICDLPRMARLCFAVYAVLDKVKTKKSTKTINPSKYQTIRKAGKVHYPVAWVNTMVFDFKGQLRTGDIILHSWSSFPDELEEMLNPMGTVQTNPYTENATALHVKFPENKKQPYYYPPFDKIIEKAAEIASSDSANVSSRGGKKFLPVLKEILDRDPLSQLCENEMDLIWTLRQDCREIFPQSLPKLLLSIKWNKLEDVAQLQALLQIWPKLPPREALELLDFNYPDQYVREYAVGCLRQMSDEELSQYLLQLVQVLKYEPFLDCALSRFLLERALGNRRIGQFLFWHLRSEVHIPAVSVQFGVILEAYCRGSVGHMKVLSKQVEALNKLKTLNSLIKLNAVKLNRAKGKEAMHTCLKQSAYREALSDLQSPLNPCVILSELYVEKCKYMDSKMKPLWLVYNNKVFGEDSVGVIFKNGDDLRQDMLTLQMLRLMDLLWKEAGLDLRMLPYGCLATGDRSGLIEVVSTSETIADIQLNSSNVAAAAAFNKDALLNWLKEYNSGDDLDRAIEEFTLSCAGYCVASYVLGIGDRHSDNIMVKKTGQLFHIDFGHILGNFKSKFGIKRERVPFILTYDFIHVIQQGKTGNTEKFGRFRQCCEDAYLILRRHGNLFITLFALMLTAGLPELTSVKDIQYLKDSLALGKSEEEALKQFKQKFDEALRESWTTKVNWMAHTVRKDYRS
# T2 sequence (P27986 whole entry partner): as the sequence (P27986 whole entry partner, species assumed) above
Molecule,pIC50 [1],pIC50 [2],"pIC50 [3, 4]","pIC50 [3, 5]","pIC50 ([3]; Homo sapiens, HCT-116, read-out: HCT 116 pAKT IC50)"
"CC(=O)Nc1nc2ccc(-c3cnc(Cl)c(NS(=O)(=O)c4ccc(C(C)O)cc4)c3)cc2s1 (single isomer, unassigned) [Example 257, N-(6-(6-chloro-5-(((4-(1-hydroxyethyl)phenyl)sulfonyl)amino)-3-pyridinyl)-1,3-benzothiazol-2-yl)acetamide]",8.21,8.14,8.08,–,–
"CC(=O)Nc1nc2ccc(-c3cnc(Cl)c(NS(=O)(=O)c4ccc(C(C)O)cc4)c3)cc2s1 (single isomer, unassigned) [Example 258]",8.12,7.94,7.31,–,–
"CC(=O)Nc1nc2ccc(-c3ccnc(OCc4cccnc4)n3)cc2s1 [Example 2, N-(6-(2-(3-pyridinylmethoxy)-4-pyrimidinyl)-1,3-benzothiazol-2-yl)acetamide]",6.34,< 4.40,–,6.10,–
"CC(=O)Nc1nc2ccc(-c3ccnc(OCc4ccccc4)n3)cc2s1 [Example 3, N-(6-(2-(benzyloxy)-4-pyrimidinyl)-1,3-benzothiazol-2-yl)acetamide]",7.02,6.62,–,5.45,–
"CC(=O)Nc1nc2ccc(-c3ccnc(OCCCc4ccccc4)n3)cc2s1 [Example 4, N-(6-(2-(3-phenylpropoxy)-4-pyrimidinyl)-1,3-benzothiazol-2-yl)acetamide]",6.82,6.41,–,5.63,–
"CC(=O)Nc1nc2ccc(-c3ccnc(OC(C)C)n3)cc2s1 [Example 6, N-(6-(2-(1-methylethoxy)-4-pyrimidinyl)-1,3-benzothiazol-2-yl)acetamide]",6.62,5.67,–,6.04,–
"CC(=O)Nc1nc2ccc(-c3ccnc(OCCc4ccccc4)n3)cc2s1 [Example 7, N-(6-(2-(2-phenylethoxy)-4-pyrimidinyl)-1,3-benzothiazol-2-yl)acetamide]",6.65,5.58,–,–,< 4.60
"COc1ccc(Sc2nccc(-c3ccc4nc(NC(C)=O)sc4c3)n2)cc1 [Example 16, N-(6-(2-(4-Methoxyphenylthio)pyrimidin-4-yl)benzo[d]thiazol-2-yl)acetamide]",7.27,6.97,–,6.08,–
"CC(=O)Nc1nc2ccc(-c3ccnc(OCc4ccncc4)n3)cc2s1 [Example 17, N-(6-(2-(4-pyridinylmethoxy)-4-pyrimidinyl)-1,3-benzothiazol-2-yl)acetamide]",6.28,4.96,–,5.97,–
"CC(=O)Nc1nc2ccc(-c3ccnc(OCCCn4ccnn4)n3)cc2s1 [Example 20, N-(6-(2-(3-(1H-1,2,3-triazol-1-yl)propoxy)-4-pyrimidinyl)-1,3-benzothiazol-2-yl)acetamide]",6.58,5.28,–,5.71,–
"CC(=O)Nc1nc2ccc(-c3ccnc(OCc4ccc5ncccc5c4)n3)cc2s1 [Example 22, N-(6-(2-(6-quinolinylmethoxy)-4-pyrimidinyl)-1,3-benzothiazol-2-yl)acetamide]",6.91,< 4.40,–,< 4.40,–
"CC(=O)Nc1nc2ccc(-c3ccnc(Sc4ccccc4F)n3)cc2s1 [Example 23, N-(6-(2-((2-fluorophenyl)sulfanyl)-4-pyrimidinyl)-1,3-benzothiazol-2-yl)acetamide]",7.21,6.51,–,6.46,–
"CC(=O)Nc1nc2ccc(-c3cnc(Cl)c(NS(=O)(=O)c4cccc(C(F)(F)F)c4)c3)cc2s1 [Example 172, N-(6-(6-chloro-5-(3-(trifluoromethyl)phenylsulfonamido)pyridin-3-yl)benzo[d]thiazol-2-yl)acetamide]",–,8.16,–,8.15,–
"CC(=O)Nc1nc2ccc(-c3cnc(Cl)c(NS(=O)(=O)c4cccc(C(C)(C)C)c4)c3)cc2s1 [Example 173, N-(6-(5-(3-tert-butylphenylsulfonamido)-6-chloropyridin-3-yl)benzo[d]thiazol-2-yl)acetamide]",–,8.16,–,8.29,–
"CC(=O)Nc1nc2ccc(-c3cnc(Cl)c(NS(=O)(=O)c4ccc(Cl)cc4)c3)cc2s1 [Example 180, N-(6-(6-chloro-5-(4-chlorophenylsulfonamido)pyridin-3-yl)benzo[d]thiazol-2-yl)acetamide]",–,8.06,–,7.90,–
"CC(=O)Nc1nc2ccc(-c3cnc(Cl)c(NS(=O)(=O)c4ccccc4)c3)cc2s1 [Example 181, N-(6-(6-chloro-5-(phenylsulfonamido)pyridin-3-yl)benzo[d]thiazol-2-yl)acetamide]",–,7.84,–,7.98,–
"CC(=O)Nc1nc2ccc(-c3cnc(Cl)c(NS(=O)(=O)c4cccc(F)c4)c3)cc2s1 [Example 183, N-(6-(6-chloro-5-(3-fluorophenylsulfonamido)pyridin-3-yl)benzo[d]thiazol-2-yl)acetamide]",–,7.98,–,7.77,–
"CC(=O)Nc1nc2ccc(-c3cnc(Cl)c(NS(=O)(=O)c4cccc(Cl)c4)c3)cc2s1 [Example 185, N-(6-(6-chloro-5-(3-chlorophenylsulfonamido)pyridin-3-yl)benzo[d]thiazol-2-yl)acetamide]",–,8.09,–,8.23,–
"CC(=O)Nc1nc2ccc(-c3cnc(Cl)c(NS(=O)(=O)c4ccc(C(F)(F)F)cc4)c3)cc2s1 [Example 190, N-(6-(6-chloro-5-(4-(trifluoromethyl)phenylsulfonamido)pyridin-3-yl)benzo[d]thiazol-2-yl)acetamide]",–,8.13,–,7.94,–
"CC(=O)Nc1nc2ccc(-c3cnc(Cl)c(NS(=O)(=O)c4ccc(C(C)(C)C)cc4)c3)cc2s1 [Example 191, N-(6-(5-(4-tert-butylphenylsulfonamido)-6-chloropyridin-3-yl)benzo[d]thiazol-2-yl)acetamide]",–,8.38,–,8.59,–
"Nc1nc2ccc(-c3cnc(Cl)c(NS(=O)(=O)c4ccc(F)cc4)c3)cc2s1 [Example 192, N-(5-(2-aminobenzo[d]thiazol-6-yl)-2-chloropyridin-3-yl)-4-fluorobenzenesulfonamide]",–,7.94,–,6.82,–
"COc1ccc(S(=O)(=O)Nc2cncc(-c3ccc4nc(NC(C)=O)sc4c3)c2)cc1 [Example 195, N-(6-(5-(4-methoxyphenylsulfonamido)pyridin-3-yl)benzo[d]thiazol-2-yl)acetamide]",–,7.66,–,7.48,–
"COc1ccc(S(=O)(=O)Nc2cc(-c3ccc4nc(NC(C)=O)sc4c3)ccn2)cc1 [Example 217, N-(6-(2-(4-methoxyphenylsulfonamido)pyridin-4-yl)benzo[d]thiazol-2-yl)acetamide]",–,6.93,–,7.15,–
"COc1cc(-c2ccc3nc(NC(C)=O)sc3c2)cnc1Br [Example 237, N-(6-(6-bromo-5-methoxypyridin-3-yl)benzo[d]thiazol-2-yl)acetamide]",5.08,–,–,< 5.30,–
"CC(=O)Nc1nc2ccc(-c3cnc(Cl)c(F)c3)cc2s1 [Example 238, N-(6-(6-chloro-5-fluoropyridin-3-yl)benzo[d]thiazol-2-yl)acetamide]",6.60,–,–,5.83,–
"N-(6-(2-(3-morpholino)propoxy)-4-pyrimidinyl)-1,3-benzothiazol-2-yl)acetamide [Example 10]",–,4.96,6.10,–,–
